Where a SMILES comes first, the peptide text is derived from it. Bridges are numbered along the chain shown (N, C = ends). [ ]: non-standard residue; d: D form. The star is where a group is joined. Ileψ(thiazoline)Cys = CC[C@H](C)[C@H](N)C1=N[C@H](C(=O)*)CS1; dOrn = NCCC[C@@H](N)C(=O)O
What was measured:
[1] = biological target: T1, Alpha-1B adrenergic receptor (Rattus norvegicus, UniProt P15823); experiment: DRUGMATRIX: Alpha-1B adrenergic receptor radioligand binding (ligand: prazosin); format: cell membranes, Wistar, Liver, Membrane; details: Not Active = under 50% inhibition at 10 µM
T1 sequence (P15823 whole entry): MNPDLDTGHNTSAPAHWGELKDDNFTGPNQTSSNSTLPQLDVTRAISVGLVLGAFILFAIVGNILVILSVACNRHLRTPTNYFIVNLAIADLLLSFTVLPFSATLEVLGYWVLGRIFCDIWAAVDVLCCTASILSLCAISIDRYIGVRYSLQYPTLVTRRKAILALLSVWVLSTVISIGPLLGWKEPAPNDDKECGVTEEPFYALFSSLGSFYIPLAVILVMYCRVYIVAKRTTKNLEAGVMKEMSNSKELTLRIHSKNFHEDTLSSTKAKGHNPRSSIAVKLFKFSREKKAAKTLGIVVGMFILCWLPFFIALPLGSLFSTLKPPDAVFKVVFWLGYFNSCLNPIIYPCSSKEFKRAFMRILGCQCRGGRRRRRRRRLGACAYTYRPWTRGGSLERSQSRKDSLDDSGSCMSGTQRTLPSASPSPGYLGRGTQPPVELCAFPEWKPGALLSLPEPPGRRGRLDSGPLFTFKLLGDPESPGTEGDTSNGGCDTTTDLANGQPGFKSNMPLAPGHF

[2] = biological target: Aldo-keto reductase family 1 member B1 (Rattus norvegicus, UniProt P07943); format: tissue-based, Lens of camera-type eye;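 note: inhibition of aldose reductase enzyme activity, measured with DL-glyceraldehyde as the substrate; in other assays of this panel Not Active means under 50% inhibition at 10 µM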
[3] = biological target: T2, Vasoactive intestinal polypeptide receptor 1 (Homo sapiens, UniProt P32241); format: cell membranes, Membrane; details: ht-29; note: in other assays of this panel Not Active means under 50% inhibition at 10 µM
T2 sequence (P32241 whole entry): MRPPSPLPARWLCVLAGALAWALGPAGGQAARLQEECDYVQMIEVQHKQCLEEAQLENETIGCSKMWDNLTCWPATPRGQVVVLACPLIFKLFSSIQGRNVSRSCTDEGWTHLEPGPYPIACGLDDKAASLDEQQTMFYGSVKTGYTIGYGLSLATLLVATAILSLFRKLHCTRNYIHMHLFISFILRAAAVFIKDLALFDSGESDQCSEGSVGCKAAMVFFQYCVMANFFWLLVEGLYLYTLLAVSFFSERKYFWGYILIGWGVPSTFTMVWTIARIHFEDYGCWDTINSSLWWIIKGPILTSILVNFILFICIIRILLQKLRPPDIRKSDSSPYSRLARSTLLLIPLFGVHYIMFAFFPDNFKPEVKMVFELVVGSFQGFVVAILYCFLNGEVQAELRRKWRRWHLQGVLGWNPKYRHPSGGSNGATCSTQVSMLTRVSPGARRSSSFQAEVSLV

[4] = biological target: T3, Endothelin-1 receptor (Homo sapiens, UniProt P25101); format: cell membranes, Membrane; details: cho-k1; note: in other assays of this panel Not Active means under 50% inhibition at 10 µM
T3 sequence (P25101 whole entry): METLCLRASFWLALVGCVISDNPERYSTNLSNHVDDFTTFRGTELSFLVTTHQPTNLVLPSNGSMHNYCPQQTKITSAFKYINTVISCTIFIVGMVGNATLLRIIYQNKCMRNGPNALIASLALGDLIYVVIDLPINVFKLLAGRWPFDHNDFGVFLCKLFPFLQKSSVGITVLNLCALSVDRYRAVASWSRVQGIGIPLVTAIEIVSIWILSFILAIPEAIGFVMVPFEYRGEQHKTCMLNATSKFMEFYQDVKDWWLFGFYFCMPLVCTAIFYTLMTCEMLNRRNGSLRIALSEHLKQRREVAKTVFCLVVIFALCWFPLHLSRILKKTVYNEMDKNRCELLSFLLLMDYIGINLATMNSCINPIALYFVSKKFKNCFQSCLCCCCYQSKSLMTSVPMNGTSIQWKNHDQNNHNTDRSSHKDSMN

[5] = biological target: Melanocortin receptor 3 (Homo sapiens, UniProt P41968); format: cell membranes, Membrane; details: hek293; note: in other assays of this panel Not Active means under 50% inhibition at 10 µM
[6] = biological target: T4, Neuropeptide Y receptor type 1 (Homo sapiens, UniProt P25929); format: cell membranes, Membrane; details: sk-n-mc; note: in other assays of this panel Not Active means under 50% inhibition at 10 µM
T4 sequence (P25929 whole entry): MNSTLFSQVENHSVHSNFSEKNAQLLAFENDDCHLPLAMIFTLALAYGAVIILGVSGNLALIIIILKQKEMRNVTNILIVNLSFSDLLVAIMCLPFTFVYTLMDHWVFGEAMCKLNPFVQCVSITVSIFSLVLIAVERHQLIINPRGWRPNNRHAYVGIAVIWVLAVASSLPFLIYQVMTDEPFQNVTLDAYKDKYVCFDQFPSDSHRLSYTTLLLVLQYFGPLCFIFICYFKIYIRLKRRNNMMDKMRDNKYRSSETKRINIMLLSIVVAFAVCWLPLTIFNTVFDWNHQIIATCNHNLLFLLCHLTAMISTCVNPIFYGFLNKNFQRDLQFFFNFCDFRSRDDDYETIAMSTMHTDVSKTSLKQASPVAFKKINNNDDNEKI

[7] = biological target: Nitric oxide synthase 1 (Rattus norvegicus, UniProt P29476); format: tissue-based, Cerebellum; note: in other assays of this panel Not Active means under 50% inhibition at 10 µM
[8] = biological target: T5, Cathepsin G (Homo sapiens, UniProt P08311); format: tissue-based; details: neutrophil
T5 sequence (P08311 whole entry): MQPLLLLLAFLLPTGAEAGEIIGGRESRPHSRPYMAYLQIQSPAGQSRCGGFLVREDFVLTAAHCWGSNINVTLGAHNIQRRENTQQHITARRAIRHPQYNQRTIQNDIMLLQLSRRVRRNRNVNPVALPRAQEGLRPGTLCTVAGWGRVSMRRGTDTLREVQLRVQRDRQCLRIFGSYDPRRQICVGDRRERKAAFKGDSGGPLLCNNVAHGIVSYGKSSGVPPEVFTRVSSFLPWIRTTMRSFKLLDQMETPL

[9] = biological target: T6, Interstitial collagenase (Homo sapiens, UniProt P03956); format: tissue-based, Rheumatoid synovial fibroblasts
T6 sequence (P03956 whole entry): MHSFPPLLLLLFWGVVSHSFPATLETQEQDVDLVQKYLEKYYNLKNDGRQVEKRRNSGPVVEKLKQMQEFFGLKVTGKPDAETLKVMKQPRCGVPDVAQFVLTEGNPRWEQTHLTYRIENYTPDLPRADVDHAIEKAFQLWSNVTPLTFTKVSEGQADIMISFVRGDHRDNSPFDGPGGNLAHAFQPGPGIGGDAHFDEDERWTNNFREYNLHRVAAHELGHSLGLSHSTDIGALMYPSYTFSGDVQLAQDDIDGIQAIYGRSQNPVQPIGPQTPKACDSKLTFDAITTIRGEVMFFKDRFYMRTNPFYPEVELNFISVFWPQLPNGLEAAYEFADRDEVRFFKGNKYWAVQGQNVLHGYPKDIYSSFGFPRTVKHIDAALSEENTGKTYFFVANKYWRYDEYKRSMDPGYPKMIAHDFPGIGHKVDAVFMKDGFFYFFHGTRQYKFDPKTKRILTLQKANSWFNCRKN

[10] = biological target: Mitogen-activated protein kinase 3 (Homo sapiens, UniProt P27361); experiment: DRUGMATRIX: Protein Serine/Threonine Kinase, ERK1 enzyme inhibition (substrate: Myelin Basic Protein); set-up: species or system Escherichia coli; details: Not Active = under 50% inhibition at 10 µM

Measured: IC50

Sequence of Melanocortin receptor 3 (P41968 whole entry): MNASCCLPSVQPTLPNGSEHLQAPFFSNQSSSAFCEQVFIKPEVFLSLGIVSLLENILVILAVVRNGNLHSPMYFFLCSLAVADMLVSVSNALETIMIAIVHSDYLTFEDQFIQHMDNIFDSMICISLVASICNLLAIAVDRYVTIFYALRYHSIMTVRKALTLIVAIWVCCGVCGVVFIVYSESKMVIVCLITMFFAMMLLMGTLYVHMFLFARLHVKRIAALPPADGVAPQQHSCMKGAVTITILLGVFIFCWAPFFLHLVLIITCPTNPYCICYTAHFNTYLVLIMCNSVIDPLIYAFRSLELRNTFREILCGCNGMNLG
Sequence of Nitric oxide synthase 1 (P29476 whole entry): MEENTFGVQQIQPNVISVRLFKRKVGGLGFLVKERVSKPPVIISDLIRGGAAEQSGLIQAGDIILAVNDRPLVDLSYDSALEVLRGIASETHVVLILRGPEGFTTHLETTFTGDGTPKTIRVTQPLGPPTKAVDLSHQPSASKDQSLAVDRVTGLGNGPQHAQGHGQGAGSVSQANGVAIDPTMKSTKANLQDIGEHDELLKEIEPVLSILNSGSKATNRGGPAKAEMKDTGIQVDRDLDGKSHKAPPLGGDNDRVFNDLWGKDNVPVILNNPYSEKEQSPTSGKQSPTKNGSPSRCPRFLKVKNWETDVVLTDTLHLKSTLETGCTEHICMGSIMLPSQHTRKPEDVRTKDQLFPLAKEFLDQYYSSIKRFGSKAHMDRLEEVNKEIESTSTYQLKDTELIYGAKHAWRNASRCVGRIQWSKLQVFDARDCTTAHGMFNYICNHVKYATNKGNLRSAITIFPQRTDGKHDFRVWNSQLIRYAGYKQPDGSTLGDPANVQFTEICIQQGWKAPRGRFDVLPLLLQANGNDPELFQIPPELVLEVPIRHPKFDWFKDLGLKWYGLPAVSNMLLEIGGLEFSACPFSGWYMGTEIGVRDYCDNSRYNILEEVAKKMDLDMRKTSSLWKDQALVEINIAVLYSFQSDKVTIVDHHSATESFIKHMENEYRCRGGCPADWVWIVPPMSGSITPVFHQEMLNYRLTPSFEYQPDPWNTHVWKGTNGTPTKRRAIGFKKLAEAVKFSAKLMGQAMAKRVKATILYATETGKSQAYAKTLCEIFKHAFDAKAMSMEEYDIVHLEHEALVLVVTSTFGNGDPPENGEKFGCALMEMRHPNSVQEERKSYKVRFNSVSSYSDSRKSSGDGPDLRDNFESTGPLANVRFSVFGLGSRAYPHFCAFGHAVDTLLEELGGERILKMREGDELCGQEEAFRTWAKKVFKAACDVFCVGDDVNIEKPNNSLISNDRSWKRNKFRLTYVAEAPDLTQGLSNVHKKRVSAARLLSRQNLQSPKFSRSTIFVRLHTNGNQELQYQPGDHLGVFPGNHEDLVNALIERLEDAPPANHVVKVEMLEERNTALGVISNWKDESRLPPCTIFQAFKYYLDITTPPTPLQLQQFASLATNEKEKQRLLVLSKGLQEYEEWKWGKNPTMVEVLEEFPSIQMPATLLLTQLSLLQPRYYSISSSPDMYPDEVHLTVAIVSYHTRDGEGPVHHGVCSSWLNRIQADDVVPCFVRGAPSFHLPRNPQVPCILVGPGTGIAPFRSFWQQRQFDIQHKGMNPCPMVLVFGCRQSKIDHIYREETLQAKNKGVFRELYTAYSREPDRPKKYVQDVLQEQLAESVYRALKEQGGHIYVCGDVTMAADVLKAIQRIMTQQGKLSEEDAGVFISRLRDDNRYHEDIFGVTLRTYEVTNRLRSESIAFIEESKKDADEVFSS
Sequence of Mitogen-activated protein kinase 3 (P27361 whole entry): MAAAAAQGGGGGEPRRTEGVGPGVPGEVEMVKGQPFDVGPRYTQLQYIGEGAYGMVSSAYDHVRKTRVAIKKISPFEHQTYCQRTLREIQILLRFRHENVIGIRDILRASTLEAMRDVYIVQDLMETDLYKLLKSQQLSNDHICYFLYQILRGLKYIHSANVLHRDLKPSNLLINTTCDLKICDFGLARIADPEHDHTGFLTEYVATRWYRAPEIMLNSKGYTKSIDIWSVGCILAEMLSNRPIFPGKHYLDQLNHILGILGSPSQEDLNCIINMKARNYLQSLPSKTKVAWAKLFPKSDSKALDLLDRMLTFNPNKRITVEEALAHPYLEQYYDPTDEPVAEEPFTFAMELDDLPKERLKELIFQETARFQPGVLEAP

CC1(C)S[C@@H]2[C@H](NC(=O)[C@H](NC(=O)N3CCNC3=O)c3ccccc3)C(=O)N2[C@H]1C(=O)O [AZLOCILLIN]
Not Active: [1] | [2] | [3] | [4] | [5] | [6] | [7] | [8] | [9] | [10]

CC[C@H](C)[C@H](N)C1=N[C@H](C(=O)N[C@@H](CC(C)C)C(=O)N[C@H](CCC(=O)O)C(=O)N[C@H](C(=O)N[C@H]2CCCCNC(=O)[C@H](CC(N)=O)NC(=O)[C@@H](CC(=O)O)NC(=O)[C@H](Cc3cnc[nH]3)NC(=O)[C@@H](Cc3ccccc3)NC(=O)[C@H]([C@@H](C)CC)NC(=O)[C@@H](CCCN)NC2=O)[C@@H](C)CC)CS1 [BACITRACIN] ({Ileψ(thiazoline)Cys}-L[dE]IK[dOrn]I[dF]H[dD]N; lactam 4-C)
Not Active: [1] | [2] | [3] | [4] | [5] | [6] | [7] | [8] | [9] | [10]

CCOC(=O)c1ccc(N)cc1 [BENZOCAINE]
Not Active: [1] | [2] | [3] | [4] | [5] | [6] | [7] | [8] | [9] | [10]

OCc1ccccc1 [BENZYL ALCOHOL]
Not Active: [1] | [2] | [3] | [4] | [5] | [6] | [7] | [8] | [9] | [10]

CC(C)(Oc1ccc(CCNC(=O)c2ccc(Cl)cc2)cc1)C(=O)O [BEZAFIBRATE]
Not Active: [1] | [2] | [3] | [4] | [5] | [6] | [7] | [8] | [9] | [10]

CCCC[C@@H](CC)COC(=O)c1ccccc1C(=O)OC[C@@H](CC)CCCC [BIS(2-ETHYLHEXYL)PHTHALATE]
Not Active: [1] | [2] | [3] | [4] | [5] | [6] | [7] | [8] | [9] | [10]

Oc1c(Cl)cc(Cl)cc1Sc1cc(Cl)cc(Cl)c1O [BITHIONOL]
Not Active: [1] | [2] | [3] | [4] | [5] | [6] | [7] | [8] | [9] | [10]

Brc1ccccc1 [BROMOBENZENE]
Not Active: [1] | [2] | [3] | [4] | [5] | [6] | [7] | [8] | [9] | [10]

CCCCOC(=O)c1ccc(N)cc1 [BUTAMBEN]
Not Active: [1] | [2] | [3] | [4] | [5] | [6] | [7] | [8] | [9] | [10]

— ChEMBL document CHEMBL1909046, “DrugMatrix in vitro pharmacology data”
